Calls of active or inactive are those of the source. No cut-off for these calls is given here.
Experiments:
[1] = test system: Mus musculus; assay: Upregulation of ABCA1 mRNA expression in liver of high fat diet fed hyperlipidemic ICR mouse model at 10 mg/kg, ig administered daily via gavage for 8 weeks by qPCR analysis; format: functional, organism-based
[2] = Toxicity in normal diet fed ICR mouse assessed as hepatic triglyceride content at 10 mg/kg, ig administered daily via gavage for 8 weeks by colorimetric assay; format: organism-based; conditions: in vivo, po, 1344 h
[3] = Toxicity in normal diet fed ICR mouse assessed as ratio of kidney weight to body weight at 10 mg/kg, ig administered daily via gavage for 8 weeks (reference value: 1.33 +/-0.12); format: organism-based; conditions: in vivo, po, 1344 h
[4] = test system: Mus musculus; assay: Protection against hyperlipidemia in high fat diet-fed hyperlipidemic ICR mouse model assessed as normal and less pale colored liver at 10 to 20 mg/kg, ig administered daily via gavage for 8 weeks; format: functional, organism-based; conditions: dose 10-20 mg/kg
[5] = test system: Mus musculus; assay: Upregulation of NPC1 mRNA expression in liver of high fat diet fed hyperlipidemic ICR mouse model at 10 mg/kg, ig administered daily via gavage for 8 weeks by qPCR analysis; format: functional, organism-based
[6] = test system: Mus musculus; assay: Protection against hyperlipidemia in high fat diet-fed hyperlipidemic ICR mouse model assessed as reduction in serum total cholesterol content at 10 mg/kg, ig administered daily via gavage for 8 weeks by spectrophotometric analysis; format: functional; conditions: po, 1344 h
[7] = test system: Mus musculus; assay: Upregulation of ABCG5 protein expression in liver of high fat diet fed hyperlipidemic ICR mouse model at 10 mg/kg, ig administered daily via gavage for 8 weeks by western blotting analysis; format: functional, organism-based
[8] = Toxicity against normal diet-fed ICR mouse assessed as effect on plasma HDL-C content at 10 mg/kg, ig administered daily via gavage for 8 weeks by spectrophotometric analysis; format: organism-based; conditions: in vivo, po, 1344 h
[9] = test system: Mus musculus; assay: Protection against hyperlipidemia in high fat diet-fed hyperlipidemic ICR mouse model assessed as reduction in hepatic total cholesterol content at 10 mg/kg, ig administered daily via gavage for 8 weeks by colorimetric assay; format: functional; conditions: po, 1344 h
[10] = Toxicity in normal diet fed ICR mouse assessed as liver morphological changes at 10 mg/kg, ig administered daily via gavage for 8 weeks; format: organism-based; conditions: in vivo, po, 1344 h
[11] = Toxicity in normal diet fed ICR mouse assessed as body weight loss at 10 mg/kg, ig administered daily via gavage for 8 weeks; format: organism-based; conditions: in vivo, po, 1344 h
[12] = test system: Mus musculus; assay: Protection against hyperlipidemia in high fat diet-fed hyperlipidemic ICR mouse model assessed as reduction in serum triglyceride content at 10 mg/kg, ig administered daily via gavage for 8 weeks by spectrophotometric analysis; format: functional; conditions: po, 1344 h
[13] = test system: Mus musculus; assay: Protection against hyperlipidemia in high fat diet-fed hyperlipidemic ICR mouse model assessed as reduction in hepatic TBA content at 10 to 20 mg/kg, ig administered daily via gavage for 8 weeks by colorimetric assay; format: functional, organism-based; conditions: dose 10-20 mg/kg
[14] = Toxicity in normal diet fed ICR mouse assessed as liver histological changes at 10 mg/kg, ig administered daily via gavage for 8 weeks by Hematoxylin and eosin staining based analysis; format: organism-based; conditions: in vivo, po, 1344 h
[15] = Toxicity in normal diet fed ICR mouse assessed as ratio of liver weight to body weight at 10 mg/kg, ig administered daily via gavage for 8 weeks (reference value: 3.74 +/-0.53); format: organism-based; conditions: in vivo, po, 1344 h
[16] = test system: Mus musculus; assay: Upregulation of ABCG1 protein expression in liver of high fat diet fed hyperlipidemic ICR mouse model at 10 mg/kg, ig administered daily via gavage for 8 weeks by western blotting analysis; format: functional, organism-based
[17] = test system: Mus musculus; assay: Upregulation of PPAR-gamma mRNA expression in liver of high fat diet fed hyperlipidemic ICR mouse model at 10 to 20 mg/kg, ig administered daily via gavage for 8 weeks by qPCR analysis; format: functional, organism-based; conditions: dose 10-20 mg/kg
[18] = Toxicity in high fat diet fed hyperlipidemic ICR mouse model assessed as ratio of stomach weight to body weight at 10 mg/kg, ig administered daily via gavage for 8 weeks (reference value: 1.41 +/-0.34); format: organism-based; conditions: in vivo, po, 1344 h
[19] = test system: Mus musculus; assay: Protection against hyperlipidemia in high fat diet-fed hyperlipidemic ICR mouse model assessed as reduction in hepatic triglyceride content at 10 mg/kg, ig administered daily via gavage for 8 weeks by colorimetric assay; format: functional; conditions: po, 1344 h
[20] = Toxicity against normal diet-fed ICR mouse assessed as effect on plasma LDL-C content at 10 mg/kg, ig administered daily via gavage for 8 weeks by spectrophotometric analysis; format: organism-based; conditions: in vivo, po, 1344 h
[21] = test system: Mus musculus; assay: Protection against hyperlipidemia in high fat diet-fed hyperlipidemic ICR mouse model assessed as reduction in vacuolar degeneration of hepatocytes at 10 mg/kg, ig administered daily via gavage for 8 weeks by Hematoxylin-eosin staining based analysis; format: functional, organism-based
[22] = Toxicity in normal diet fed ICR mouse assessed as hepatic total cholesterol content at 10 mg/kg, ig administered daily via gavage for 8 weeks by colorimetric assay; format: organism-based; conditions: in vivo, po, 1344 h
[23] = Toxicity in high fat diet fed hyperlipidemic ICR mouse model assessed as ratio of spleen weight to body weight at 10 mg/kg, ig administered daily via gavage for 8 weeks (reference value: 0.43 +/-0.11); format: organism-based; conditions: in vivo, po, 1344 h
[24] = test system: Mus musculus; assay: Protection against hyperlipidemia in high fat diet-fed hyperlipidemic ICR mouse model assessed as reduction in hepatic total cholesterol content at 20 mg/kg, ig administered daily via gavage for 8 weeks by colorimetric assay; format: functional, organism-based
[25] = test system: Mus musculus; assay: Protection against hyperlipidemia in high fat diet-fed hyperlipidemic ICR mouse model assessed as reduction in serum LDL-C content at 10 mg/kg, ig administered daily via gavage for 8 weeks by spectrophotometric analysis; format: functional; conditions: po, 1344 h
[26] = test system: Mus musculus; assay: Protection against hyperlipidemia in high fat diet-fed hyperlipidemic ICR mouse model assessed as reduction in hepatic triglyceride content at 20 mg/kg, ig administered daily via gavage for 8 weeks by colorimetric assay; format: functional, organism-based
[27] = molecular target: T1, Retinoic acid receptor RXR-alpha (Homo sapiens) (UniProt P19793); assay: Agonist activity at human RXR-alpha expressed in HEK293 cells co-transfected with luciferase reporter plasmid assessed as receptor transactivation at 10 uM incubated for 18 hrs by luciferase reporter gene assay relative to control; format: cell-based
T1 sequence (whole entry): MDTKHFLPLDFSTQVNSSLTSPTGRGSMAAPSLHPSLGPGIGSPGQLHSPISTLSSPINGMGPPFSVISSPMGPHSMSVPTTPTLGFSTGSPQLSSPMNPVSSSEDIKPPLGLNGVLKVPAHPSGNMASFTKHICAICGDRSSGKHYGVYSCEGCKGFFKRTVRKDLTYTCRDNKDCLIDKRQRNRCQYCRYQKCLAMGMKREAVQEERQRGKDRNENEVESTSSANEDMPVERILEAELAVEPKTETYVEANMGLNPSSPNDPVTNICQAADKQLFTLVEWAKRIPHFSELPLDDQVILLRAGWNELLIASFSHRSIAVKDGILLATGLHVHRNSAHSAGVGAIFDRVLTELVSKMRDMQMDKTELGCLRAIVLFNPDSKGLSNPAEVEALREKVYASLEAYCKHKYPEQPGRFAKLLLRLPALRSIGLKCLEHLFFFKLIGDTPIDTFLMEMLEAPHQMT

[28] = Toxicity in high fat diet fed hyperlipidemic ICR mouse model assessed as ratio of lung weight to body weight at 10 mg/kg, ig administered daily via gavage for 8 weeks (reference value: 0.93 +/-0.28); format: organism-based; conditions: in vivo, po, 1344 h

With `CN1c2ccccc2C(=O)N2CCc3c([nH]c4ccccc34)C21` (stereo not drawn) the Activity [1] was “inactive”, the Activity [2] was “Non-Toxic” and the Ratio [3] was 1.33. The Activity [4] was “Active”, the Activity [5] was “inactive” and the inhibition in vivo at 10 mg/kg [6] was 50%. The Activity [7] was “inactive”, the Activity [8] was “Non-Toxic” and the inhibition in vivo at 10 mg/kg [9] was 42.3%. For the same compound, the Activity [10] was “Non-Toxic”, the Activity [11] was “Toxic” and the inhibition in vivo at 10 mg/kg [12] was 34%. The Activity [13] was “Active”, the Activity [14] was “Non-Toxic” and the Ratio [15] was 3.64. For the same compound, the Activity [16] was “Active”, the Activity [17] was “Active” and the Ratio [18] was 1.22. For the same compound, the inhibition in vivo at 10 mg/kg [19] was 33.2%, the Activity [20] was “Non-Toxic” and the Activity [21] was “Active”. For the same compound, the Activity [22] was “Non-Toxic”, the Ratio [23] was 0.37 and the Activity [24] was “Active”. The inhibition in vivo at 10 mg/kg [25] was 65.1%, the Activity [26] was “Active” and the fold change (FC) [27] was 1.04. For the same compound, the Ratio [28] was 0.81.
